Usually IC50 stands for the concentration needed to halve the response being measured.

SMILES strings stand for the structures. Where two headings read alike, the source gives them in different places.

The subject of series [1] is 2780CP ovarian (multi-drug resistant). Briefly: Cell proliferation (MTT) assay in 2780CP ovarian cells. The format is cell-based. As to conditions: Table 3; error is standard error of the mean. The method, then: Further anti-proliferation studies were carried out with complex 1 and its naphthoquinone component 4[H][Cl] using the following cell lines: A2780 ovarian (a wt-p53 cell line sensitive to platinum treatment), 2780CP ovarian (isogenic to A2780 but expressing multi-drug resistance (MDR)), and PC-3 prostate (p53 null) (Table 3).
Cells were harvested and seeded into 96-well culture plates (Costar 07-200-90) in 100 μL of culture media. They were allowed to incubate overnight at 37° C. in the presence of 5% CO2. A549 was seeded at a density of 1000 cells/well, A2780 at 2500 cells/well, A2780CP at 3000 cells/well, and PC-3 at 2000 cells/well. The next day, appropriate serial dilutions of drug stocks in culture media were made. To each well of a 96 well plate was added 100 μL of the appropriate solution. After a total of three days, a […] aliquot of 3 mg/mL tetrazolium dye, 344,5-dimethylthiazol-2-yl)-2,5-diphenyltetrazolium bromide (Alfa Aesar L11939) was added to each well, followed by a 4 hr incubation period at 37° C. The medium was then removed, the resulting formazan was dissolved in […] DMSO and the respective absorbances were measured at 560-650 nm using a microplate reader (Molecular Devices, Sunnyvale, Calif.). Absorbance values were corrected for background and then normalized to wells containing untreated cells to allow for plate-to-plate comparisons. […]

Series [2] has as its system A549 cancer cells. As to conditions: A549, 1.25 μM.
Description: All cells were selectively stained for visualization of ROS accentuation (green, CM-H2DCFDA), mitochondria (red, Mitotracker Red), and nuclei (blue, Hoechst).
Cells were then incubated with 1.25 μM complex at 37° C. 4 h. Post incubation, the media was removed and cells were washed (2×) with PBS. Cells were then incubated with 1 μM CM-H2DCFDA (Lifetech C6827) in PBS at 37° C. for 15 min. The dye-PBS solution was removed and cells were washed with PBS (2×). To the cells was added a PBS solution containing 1 ug/mL Hoechst 33342 (Lifetech H1399) and 50 nM Mitotracker Red FM (Lifetech M22425) for 30 min at 37° C. After incubation, the dye-PBS solution was removed and cells were washed with PBS (2×). Cells were then imaged fluorescently on a Leica SP5 X White light laser confocal microscope. Images were taken with a 63×, NA 1.4 objective.
The nature of series [3]: Electrochemical analysis (differential pulse voltammetry) in DMSO. It is filed as physicochemical. As to conditions: 0.1M [N(nBu)4][PF6], 0.1 mM analyte, vs SCE. The method, then:
[Cl] (Guth et al., 2011; Gómez et al., 2003).
1,3-Dimesitylnapthoquinimidazolium chloride (Sanderson et al., 2006; Tennyson et al., 2010), (1,3-dimesityl-4,5-naphthoquino-imidazol-2-ylidene)-silver(I) chloride (Sanderson et al., 2006; Tennyson et al., 2010), (C4H2S)AuCl (Hashmi, et al., 2010) were prepared according to the literature procedures. All other reagents were purchased from commercial sources and used as received, including: [((CH3)3Si)2N]Na (NaHMDS) and silver(I) oxide. CD2Cl2 (99.9%) was purchased from Acros Laboratories in glass ampules and used as received. Solvents were either dried with a solvent purification system from the Inert Innovative Technology, Inc. (dichloromethane, diethyl ether, hexanes, tetrahydrofuran and toluene) or freshly distilled over 3 Å molecular sieves and degassed using three consecutive freeze-pump-thaw cycles prior to use. UV-vis spectra were obtained at ambient temperature with a Hewlett-Packard 8452A diode array spectrophotometer with molar absorptivities reported in M^−1 cm^−1. ^1H and ^13C NMR spectra were recorded on Bruker 300 MHz spectrometer. Spectra were referenced to the residual solvent as an internal standard, for ^1H NMR: CD2Cl2, 5.32 ppm and ^13C NMR: CD2Cl2, 53.84 ppm. High-resolution mass spectra (HRMS) were obtained with an Agilent Technologies 6530 Accurate Mass Q-TOF LC/MS (ESI) and are reported as m/z (relative intensity). Electroanalytical measurements were performed on a CHI620E electrochemical workstation using a silver wire quasi-reference electrode, a platinum disk working electrode and a Pt wire auxiliary electrode in a three-electrode cell under an atmosphere of nitrogen. […] All potentials listed herein were determined by differential pulse voltammetry and referenced to a saturated calomel electrode (SCE) by shifting ferrocene^0/+ to 0.435 V (DMSO) (Aranzaes et al., 2006). Spectroelectrochemistry measurements were obtained at ambient temperature with a custom designed three-electrode cell using Hewlett-Packard 8452A diode array spectrophotometer and CHI620E. Elemental analyses were performed by Midwest Microlab, LLC in Indianapolis, Ind. […] Trypsin (Hyclone SH30236.01) and Dulbecco's Phosphate Buffer Saline (Sigma R5886) were used for general cell maintenance and harvesting. Cell lines were obtained from the ATCC (A549 and PC-3) and Prof. Zahid Siddik at MD Anderson (A2780 and A2780CP). Thiazolyl blue tetrazolium bromide (Alfa Aesar L11939) was used for cell proliferation assays. Cell culture plastic ware consisted of generic T-75 flasks, 80.5 mm diameter culture dishes, and treated 96-well plates.

Series [4] relates to A549 lung cancer cells. Briefly: Cell proliferation (MTT) assay in A549 lung cancer cells. The format is cell-based, human. How it is done: Cells were harvested and seeded into 96-well culture plates (Costar 07-200-90) in 100 μL of culture media. They were allowed to incubate overnight at 37° C. in the presence of 5% CO2. A549 was seeded at a density of 1000 cells/well, A2780 at 2500 cells/well, A2780CP at 3000 cells/well, and PC-3 at 2000 cells/well. The next day, appropriate serial dilutions of drug stocks in culture media were made. To each well of a 96 well plate was added 100 μL of the appropriate solution. After a total of three days, a […] aliquot of 3 mg/mL tetrazolium dye, 344,5-dimethylthiazol-2-yl)-2,5-diphenyltetrazolium bromide (Alfa Aesar L11939) was added to each well, followed by a 4 hr incubation period at 37° C. The medium was then removed, the resulting formazan was dissolved in […] DMSO and the respective absorbances were measured at 560-650 nm using a microplate reader (Molecular Devices, Sunnyvale, Calif.). Absorbance values were corrected for background and then normalized to wells containing untreated cells to allow for plate-to-plate comparisons. The data are shown as mean inhibition of proliferation or growth as a percentage of control cells and are from 2-3 replicate experiments. Resulting dose response curves were subjected to linear regression analysis (Origin by OriginLab, Inc.) for determination of IC50 values.

Series [5] relates to fetal bovine serum proteins. The method, then:
To assess potential drug protein interactions, samples of fetal bovine serum (FBS) were treated with 25 μM 1, 3, and auranofin prior to incubating at 37° C. Aliquots were taken and the free Au (non-protein bound, methanolic extracts) content was analyzed by ICP-MS (FIG. 3B).
A 25 μM solution of each compound in 3 mL warm FBS was made. The solutions were kept at 37° C. Over time, 100 μL aliquots of each solution were taken and precipitated into 400 μL cold methanol. Precipitated aliquots were stored at −80° C. The methanolic suspensions were then centrifuged at 11,000 rcf for 5 min in an Edvotek microcentrifuge. The supernatants were pipetted into new microcentrifuge tubes. Samples were prepared for ICP-MS by adding 200 μL supernatant from each sample to 2 mL 3% Trace Metal Grade HCl. Time points were at addition of compound (T0), 4, 6.25, 9.75, 12, 24, 48, 72, and 100 h.

In series [6] the test system is A549 lung cancer cell xenografts in zebrafish. As to conditions: 0.5 μM, bright field images. How it is done: First, zebrafish embryos were divided into 7 groups at an average of 65 embryos per group. […] Briefly, live human lung cancer cells (A549) were labeled with CM-DiI (red) and only live cells were transplanted via injection into the perivitelline space of 30 zebrafish embryos 24 hours post fertilization (hpf) (Sittaramane et al., 2015; Veinotte et al., 2014; Xie et al., 2015). Tumor inoculated zebrafish embryos were allowed to grow for one day till 48 hpf. This allows for establishment of the cancer cells in the host zebrafish embryos.

Turning to `Cc1cc(C)c(-n2c3c([n+](-c4c(C)cc(C)cc4C)[c]2[Au-][c]2n(-c4c(C)cc(C)cc4C)c4c([n+]2-c2c(C)cc(C)cc2C)C(=O)c2ccccc2C4=O)C(=O)c2ccccc2C3=O)c(C)c1.[Cl][Ag-][Cl]` [Compound 1, [Bis(1,3-dimesityl-4,5-naphthoquino-imidazol-2-ylidene)-gold(I)] [Silver(I)dichloride]], the IC50 was determined as 54 ± 6 nM in series [1]; 73 ± 16 nM in series [4] (A549 lung cancer cells, MTT, 72 h, read-out: IC50); 73 ± 16 nM in series [4] (Table 3, error is standard error of the mean, read-out: IC50 A549 Lung). Moreover, the “subcellular loci of ROS accentuation” value in series [2] is recorded as “ROS accentuation is arising from mitochondria”. Moreover, the “E1/2 (V) DPV, first reduction, formation of semiquinone radical” value in series [3] is listed as −0.42 V. Moreover, the “E1/2^b (V) DPV, second reduction, formation of quinone dianion” value in series [3] was −1.31 V. In addition, the “Fold Difference relative to 1” value in series [4] (A549 IC50 relative to complex 1) is recorded as 1. Also, the “free Au (non-protein bound) content as a function of time” value in series [5] is “minimal changes in the free Au levels”. The “non-specific cell death in the developing zebrafish larvae” value in series [6] was “no non-specific cell death”.

These data come from patent US11332483B2, “Naphthoquinone containing gold carbene complexes and methods of uses thereof” (BOARD OF REGENTS, THE UNIVERSITY OF TEXAS SYSTEM, priority 2017, dated 2022).
